biological target: RORγ (Homo sapiens, UniProt P51449); test: RORγ Gal4 Reporter Gene Assay; type: cell-based; settings: not given
Protocol: Determination of a ligand mediated Gal4 promoter driven transactivation to quantify ligand binding to RORγ was performed as follows: DNA encoding three different RORγ protein fragments was cloned into vector pCMV-BD (Stratagene). Expression was under control of a CMV promoter and as fusion to the DNA-binding domain of the yeast protein GAL4. Other vectors used were pFR-Luc (Stratagene) as regulated reporter plasmid. pFR-Luc contains a synthetic promoter with five tandem repeats of the yeast GAL4 binding sites that control expression of the Photinus pyralis (American firefly) luciferase gene. In order to improve experimental accuracy the plasmid pRL-CMV was cotransfected. pRL-CMV contains the constitutive CMV promoter, controlling the expression of the Renilla reniformis luciferase.
The medium is supplemented with 10% fetal bovine serum, 0.1 mM nonessential amino acids, 1 mM sodium pyruvate, 1% Glutamax and 100 units Penicilin/[…] per mL at 37° C. in 5% CO2.
For the assay, […] were plated per well in 96 well plates in 100 μL per well, incubated over night at 37° C. in 5% CO2. […] About 4 h after addition of the transfection solution, fresh Minimal Essential Medium (MEM, same composition as used for plating cells, but without serum) was added. Then compound stocks, prediluted in MEM (same composition as used for plating cells) were added (final vehicle concentration not exceeding 0.1%).
All experiments were done at least in triplicates.

Sequence of RORγ (P51449 whole entry, looked up, the tested form may be a part): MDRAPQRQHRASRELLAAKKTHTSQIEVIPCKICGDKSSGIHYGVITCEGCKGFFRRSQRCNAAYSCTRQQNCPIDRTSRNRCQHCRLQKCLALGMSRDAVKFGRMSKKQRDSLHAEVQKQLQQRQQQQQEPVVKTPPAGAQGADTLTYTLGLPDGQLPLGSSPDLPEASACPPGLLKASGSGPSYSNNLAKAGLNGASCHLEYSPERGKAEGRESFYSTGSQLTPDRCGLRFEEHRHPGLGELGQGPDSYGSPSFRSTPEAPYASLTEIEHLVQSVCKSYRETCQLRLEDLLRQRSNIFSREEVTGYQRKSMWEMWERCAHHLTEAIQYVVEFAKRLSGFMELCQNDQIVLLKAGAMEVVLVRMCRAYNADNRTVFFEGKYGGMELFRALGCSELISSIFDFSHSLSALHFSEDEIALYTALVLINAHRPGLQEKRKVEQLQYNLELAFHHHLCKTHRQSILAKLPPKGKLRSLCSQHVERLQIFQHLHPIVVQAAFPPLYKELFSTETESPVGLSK

| Compound | pIC50 (FF) | pIC50 (REN) |
| --- | --- | --- |
| CC(C)(C)NS(=O)(=O)c1ccc(-c2sc(C(=O)N3CCC(C(C)(C)C(=O)O)C3)nc2CC2CCCCC2)c2ccccc12 (stereo not shown) [6/50] | nt/7.6/7.7 | nt/7.6/7.7 |
| CN(C(=O)c1nc(CC2CCCCC2)c(-c2cc(C(C)(C)C)cc(C3(C)CC3)c2)s1)C1CCOCC1 [6/52] | nt/6.9/6.9 | nt/6.9/6.9 |
| CC(C)(C)NS(=O)(=O)c1ccc(-c2sc(C(=O)N3CCS(=O)(=O)CC3)nc2CC2CCCCC2)c2ccccc12 [6/55] | nt/8.0/8.2 | nt/8.0/8.2 |
| CC(C)(C)NS(=O)(=O)c1ccc(-c2sc(C(=O)N3CCC(S(C)(=O)=O)CC3)nc2CC2CCCCC2)c2ccccc12 [6/56] | nt/8.1/8.2 | nt/8.1/8.2 |
| CC(C)(C)NS(=O)(=O)c1ccc(-c2sc(C(=O)N3CC(S(C)(=O)=O)C3)nc2CC2CCCCC2)c2ccccc12 [6/57] | nt/7.9/8.2 | nt/7.9/8.2 |
| CC(C)(C#N)CNC(=O)c1nc(CC2CCCCC2)c(-c2ccc(S(=O)(=O)NC(C)(C)C)c3ccccc23)s1 [6/58] | nt/8.7/8.7 | nt/8.7/8.7 |
| CC(C)(C)NS(=O)(=O)c1ccc(-c2sc(C(=O)NCC(C)(C)c3nn[nH]n3)nc2CC2CCCCC2)c2ccccc12 [6/59] | nt/7.6/7.8 | nt/7.6/7.8 |
| CC(C)(C)NS(=O)(=O)c1ccc(-c2sc(C(=O)NCC(C)(C)c3noc(=O)[nH]3)nc2CC2CCCCC2)c2ccccc12 [6/60] | nt/8.5/8.7 | nt/8.5/8.7 |
| C[C@H](NC(=O)c1cc(-c2sc(C(=O)NCC(C)(C)c3nnn[nH]3)nc2CC2CCCCC2)cc(C2(C)CC2)c1)C(F)(F)F [6/62] | nt/7.5/7.5 | nt/7.5/7.5 |
| Cc1c(-c2sc(C(=O)NC3CCS(=O)(=O)CC3)nc2CC2CCCCC2)cc(Cl)c(S(=O)(=O)NC(C)(C)C)c1Cl [6/63] | nt/9.2/8.9 | nt/9.2/8.9 |
| CC(C)(CCO)NC(=O)c1cc(-c2sc(C(=O)NC3CCS(=O)(=O)CC3)nc2CC2CCCCC2)cc(C2(C)CC2)c1 [10/3] | nt/7.9/8.0 | nt/7.9/8.0 |
| CC1(NC(=O)c2cc(-c3sc(C(=O)NC4CCS(=O)(=O)CC4)nc3CC3CCCCC3)cc(C3(C)CC3)c2)COC1 [10/4] | nt/7.9/7.9 | nt/7.9/7.9 |
| Cc1c(-c2sc(C(=O)NC3CCS(=O)(=O)CC3)nc2CC2CCCCC2)cc(Cl)c(S(N)(=O)=O)c1Cl [17/2] | nt/5.7/5.9 | nt/5.7/5.9 |
| CC(C)(C)NS(=O)(=O)c1cc(Cl)c(-c2sc(C(=O)N[C@H]3C[C@H](C(=O)O)C3)nc2CC2CCCCC2)cc1Cl [19/11] | nt/7.6/7.7 | nt/7.6/7.7 |
| CC(C)(O)CNC(=O)c1nc(CC2CCCCC2)c(-c2ccc(S(=O)(=O)NC(C)(C)C)cc2OC(F)(F)F)s1 [21/8] | nt/7.7/7.8 | nt/7.7/7.8 |
| CC(C)(O)CNC(=O)c1nc(CC2CCC(F)(F)CC2)c(-c2ccc(S(=O)(=O)NC(C)(C)C)c3ccccc23)s1 [21/11] | nt/8.0/8.2 | nt/8.0/8.2 |
| CC(C)(C)NS(=O)(=O)c1ccc(-c2sc(C(=O)NC3CCS(=O)(=O)CC3)nc2CC2CCC(F)(F)CC2)c2ccccc12 [21/12] | nt/8.0/8.2 | nt/8.0/8.2 |

| Compound | pIC50 (FF) | pIC50 (REN) |
| --- | --- | --- |
| CC(C)(C)NS(=O)(=O)c1ccc(-c2sc(C(=O)NC3CCS(=O)(=O)CC3)nc2CC2CCC2)c(Cl)c1Cl [21/14] | nt/8.3/8.4 | nt/8.3/8.4 |
| CC(C)(C)NS(=O)(=O)c1ccc(-c2sc(C(=O)NC3CCS(=O)(=O)CC3)nc2CC2CCC2)c2ccccc12 [21/16] | nt/8.4/8.4 | nt/8.4/8.4 |
| C[C@H](NS(=O)(=O)c1ccc(-c2sc(C(=O)NCC(C)(C)O)nc2CC2CCC2)c(OC(F)(F)F)c1)C(F)(F)F [21/18] | nt/8.0/8.1 | nt/8.0/8.1 |
| C[C@H](NS(=O)(=O)c1ccc(-c2sc(C(=O)NCC(C)(C)O)nc2CC2CCC2)c(Cl)c1)C(F)(F)F [21/19] | nt/7.9/7.9 | nt/7.9/7.9 |
| C[C@H](NS(=O)(=O)c1ccc(-c2sc(C(=O)NCC(C)(C)O)nc2CC2CCC2)c(C(F)(F)F)c1)C(F)(F)F [21/20] | nt/7.7/7.7 | nt/7.7/7.7 |
| C[C@H](NS(=O)(=O)c1ccc(-c2sc(C(=O)NCC(C)(C)O)nc2CC2CCC2)c(OC(F)F)c1)C(F)(F)F [21/21] | nt/7.7/7.8 | nt/7.7/7.8 |
| C[C@H](NS(=O)(=O)c1ccc(-c2sc(C(=O)NCC(C)(C)O)nc2CC2CCC(F)(F)CC2)c2ccccc12)C(F)(F)F [21/23] | nt/8.7/8.6 | nt/8.7/8.6 |
| CC(C)(O)CNC(=O)c1nc(CC2CCC2)c(-c2ccc(S(=O)(=O)NC(C)(C)C)cc2OC(F)(F)F)s1 [21/24] | nt/7.5/7.6 | nt/7.5/7.6 |
| CCC(C)(C)NS(=O)(=O)c1ccc(-c2sc(C(=O)NCC(C)(C)O)nc2CC2CCC2)c(OC(F)(F)F)c1 [21/25] | nt/7.7/7.8 | nt/7.7/7.8 |
| CC(C)(C)NS(=O)(=O)c1ccc(-c2nc(C(=O)NC3CCS(=O)(=O)CC3)sc2CC2CCCCC2)c2ccccc12 [25/2] | nt/9.0/9.0 | nt/9.0/9.0 |
| CC(C)(C)NS(=O)(=O)c1ccc(-c2oc(C(=O)NCCC(C)(C)C(=O)O)nc2CC2CCCCC2)c2ccccc12 [100/21] | nt/7.2/7.1 | nt/7.2/7.1 |
| CC(C)(C)NS(=O)(=O)c1ccc(-c2oc(C(=O)N3CC4(C3)CS(=O)(=O)C4)nc2CC2CCCCC2)c2ccccc12 [100/24] | nt/7.5/7.7 | nt/7.5/7.7 |
| CC(C)(C)NS(=O)(=O)c1ccc(-c2oc(C(=O)NC3CCS(=O)(=O)CC3)nc2CC2CCCCC2)c2ccncc12 [100/28] | nt/7.1/7.2 | nt/7.1/7.2 |
| CC(C)(C)c1cc(-c2nc(C(=O)NC3CCS(=O)(=O)CC3)oc2CC2CCCCC2)cc(C2(C)CC2)c1 [103/3] | nt/6.6/6.6 | nt/6.6/6.6 |
| CCCc1nc(C(=O)NC2CCS(=O)(=O)CC2)sc1-c1ccc(S(=O)(=O)NC(C)(C)C)c2ccccc12 [300/7] | nt/7.7/7.9 | nt/7.7/7.9 |
| CCCc1nc(C(=O)NCC(C)(C)O)sc1-c1ccc(S(=O)(=O)N[C@@H](C)C(F)(F)F)c2ccccc12 [300/9] | nt/7.9/7.9 | nt/7.9/7.9 |

same assay, conditions: firefly (FF) luciferase, 293T cells

| Compound | pIC50 (FF) |
| --- | --- |
| CC(C)(C)NS(=O)(=O)c1ccc(-c2sc(C(=O)N[C@H]3C[C@H](C(=O)O)C3)nc2CC2CCCCC2)c2ccccc12 [7/9] | 8.7 |

same assay, conditions: firefly (FF) luciferase, 293T cells; read-out: pIC50 (FF) (converted)

| Compound | IC50 |
| --- | --- |
| C[C@H](NS(=O)(=O)c1ccc(-c2sc(C(=O)NC3CCS(=O)(=O)CC3)nc2CC2CCCC2)c2ccccc12)C(F)(F)F [8/11] | 1 nM |
| C[C@H](NS(=O)(=O)c1ccc(-c2sc(C(=O)NC3CCS(=O)(=O)CC3)nc2CC2CCCC2)c(Cl)c1Cl)C(F)(F)F [8/12] | 1.26 nM |
| CC(C)(C)NS(=O)(=O)c1ccc(-c2sc(C(=O)N[C@H]3C[C@H](C(=O)O)C3)nc2CC2CCCCC2)c(OC(F)(F)F)c1 [21/7] | 10 nM |
| CC(C)(C)NS(=O)(=O)c1ccc(-c2sc(C(=O)N[C@H]3C[C@H](C(=O)O)C3)nc2CC2CCC2)c(Cl)c1Cl [21/15] | 20 nM |
| CC(C)(C)NS(=O)(=O)c1ccc(-c2sc(C(=O)N[C@H]3C[C@H](C(=O)O)C3)nc2CC2CCC2)c2ccccc12 [21/17] | 7.94 nM |
| CC(C)(C)c1cc(-c2nc(C(=O)N[C@H]3C[C@H](C(=O)O)C3)oc2CC2CCCCC2)cc(C2(C)CC2)c1 [103/2] | 398 nM |
| CCCc1nc(C(=O)N[C@H]2C[C@H](C(=O)O)C2)sc1-c1ccc(S(=O)(=O)NC(C)(C)C)c2ccccc12 [300/8] | 79.4 nM |

same assay, conditions: renilla normalised (RENnorm) luciferase, 293T cells

| Compound | pIC50 (REN) |
| --- | --- |
| CC(C)(C)NS(=O)(=O)c1ccc(-c2sc(C(=O)N[C@H]3C[C@H](C(=O)O)C3)nc2CC2CCCCC2)c2ccccc12 [7/9] | 9.0 |

same assay, conditions: renilla normalised (RENnorm) luciferase, 293T cells; read-out: pIC50 (REN) (converted)

| Compound | IC50 |
| --- | --- |
| C[C@H](NS(=O)(=O)c1ccc(-c2sc(C(=O)NC3CCS(=O)(=O)CC3)nc2CC2CCCC2)c2ccccc12)C(F)(F)F [8/11] | 1 nM |
| C[C@H](NS(=O)(=O)c1ccc(-c2sc(C(=O)NC3CCS(=O)(=O)CC3)nc2CC2CCCC2)c(Cl)c1Cl)C(F)(F)F [8/12] | 1.26 nM |
| CC(C)(C)NS(=O)(=O)c1ccc(-c2sc(C(=O)N[C@H]3C[C@H](C(=O)O)C3)nc2CC2CCCCC2)c(OC(F)(F)F)c1 [21/7] | 6.31 nM |
| CC(C)(C)NS(=O)(=O)c1ccc(-c2sc(C(=O)N[C@H]3C[C@H](C(=O)O)C3)nc2CC2CCC2)c(Cl)c1Cl [21/15] | 20 nM |
| CC(C)(C)NS(=O)(=O)c1ccc(-c2sc(C(=O)N[C@H]3C[C@H](C(=O)O)C3)nc2CC2CCC2)c2ccccc12 [21/17] | 6.31 nM |
| CC(C)(C)c1cc(-c2nc(C(=O)N[C@H]3C[C@H](C(=O)O)C3)oc2CC2CCCCC2)cc(C2(C)CC2)c1 [103/2] | 251 nM |
| CCCc1nc(C(=O)N[C@H]2C[C@H](C(=O)O)C2)sc1-c1ccc(S(=O)(=O)NC(C)(C)C)c2ccccc12 [300/8] | 63.1 nM |

Reference: patent publication US10301272B2, “Carboxamide or sulfonamide substituted thiazoles and related derivatives as modulators for the orphan nuclear receptor ROR[γ]” (Phenex Pharmaceuticals AG, priority 2012, dated 2019)
